“Also recorded” adds a separate entry of the source.
Test system: soil urease
Assay: Urea hydrolysis in bands of urea in soil (banded soil system urease inhibition test)
Format: biochemical
Settings: for % inhibition, 3 days (as measured by percent urea unhydrolyzed) / % inhibition, 6 days (as measured by percent urea unhydrolyzed): Hastings silt loam soil, 25° C., inhibitor 41 mg/band with urea 410 mg/band (10% of urea wt/wt), two replicates; for % inhibition, 3 days (as measured by percent urea unhydrolyzed): 3 days incubation; for % inhibition, 6 days (as measured by percent urea unhydrolyzed): 6 days incubation; for urease inhibition effectiveness in soil (in words): banded soil system, three- and six-day tests, compared with PPDA
Experimental: Test compounds in Example I, infra, were evaluated in soil systems by an alternative procedure in which powdered mixtures of urea and test compounds were applied in narrow bands in the soil rather than being mixed throughout the soil. The banded configuration is not only applicable to banded applications but also results in concentration gradients of urea, urea hydrolysis products, test compounds, and test compound decomposition products similar to those in the immediate vicinity of urea granules containing test compounds. Another advantage of the banded configuration compared with mixing throughout the soil is that slightly soluble test compounds can be easily band applied, whereas it is difficult to achieve a known degree of mixing of a small quantity of slightly soluble test compound with soil. The banded configuration also enables testing for urease inhibition under realistic soil conditions prior to the development of techniques for cogranulating a wide range of test compounds with urea.
Specifics of the procedure for evaluating test compounds in Example I were as follows. Urease-active soil (Hastings silt loam) was moistened to a moisture content of 20% (dry weight basis) and preincubated at room temperature for two days. Plexiglass containers (6×6×6 cm) were one-half filled with soil and packed to a bulk density of 1.1 g/cm^3. Urea or urea plus inhibitor (thoroughly mixed) was distributed in a narrow band 6 cm long and about 0.5 cm wide on the soil surface. The containers then were filled with soil, again packing to a bulk density of 1.1 g/cm^3. The containers were incubated at 25° C. for the desired reaction period, after which the containers were frozen to about -5° C. to halt urea hydrolysis. Immediately prior to extracting the remaining urea from the soil, said soil was allowed to thaw. Soil from each container was thoroughly mixed, and a 10-g sample was extracted with 100 ml of 2M KCl containing phenylmercuric acetate to prevent urea hydrolysis during handling [L. A. Douglass, J. M. Bremner, Soil Sci. Soc. Am. Proc. 34, 859-862 (1970a)]. Urea in the extracts was determined with an automated version of the colorimetric procedure [L. A. Douglass, J. M. Bremner, Anal. Letters 3, 79-87 (1970b)].
Urease-active soil (Hastings silt loam) was moistened to a moisture content of 20% and preincubated at room temperature for two days. Plexiglass containers (6×6×6 cm) were one-half filled with soil and packed to a bulk density of 1.1 g/cm^3. Urea or urea plus inhibitor (thoroughly mixed) was distributed in a narrow band some 6 cm long and about 0.5 cm wide on the surface of the soil. The containers then were filled with soil and again packed to a bulk density of 1.1 g/cm^3. The containers were incubated at 25° C. for the desired reaction period.
The soil from each container was thoroughly mixed, and 10-g sample was extracted with 100 ml of 2M KCl containing 5 ppm phenylmercuric acetate to prevent urea hydrolysis during handling [L. A. Douglass, J. M. Bremner, Soil Sci. Soc. Am. Proc.34, 859-862 (1970); L. A. Douglass, J. M. Bremner, Anal. Letters 3, 79-87 (1970b)]. The urea in the extracts was determined colorimetrically as a measure of the unhydrolyzed urea.

| Structure (SMILES) | % inhibition, 3 days (as measured by percent urea unhydrolyzed) (Test Series I) | % inhibition, 6 days (as measured by percent urea unhydrolyzed) (Test Series I) | urease inhibition effectiveness in soil (in words) | % inhibition, 3 days (as measured by percent urea unhydrolyzed) (Test Series II) | % inhibition, 6 days (as measured by percent urea unhydrolyzed) (Test Series II) |
| --- | --- | --- | --- | --- | --- |
| c1ccc(SSc2ccccn2)nc1 [AT, Aldrithiol] | 42.9% | 0.7% | possesses even the smallest urease activity |  |  |
| c1ccc(-c2ccccn2)nc1 [DP, 2,2'-Dipyridyl] | 12.0% | 0.2% |  |  |  |
| O=[N+]([O-])c1ccc(SSc2ccc([N+](=O)[O-])cn2)nc1 [DTNP, 2,2-Dithio-5-nitropyridine] | 8.6% | 0.5% |  |  |  |
| [O-][n+]1ccccc1SSc1cccc[n+]1[O-] [DTPNO, 2,2-Dithiobis-pyridine-N-oxide] | 92.2% | 46.4% | as effective an inhibitor as PPDA; also recorded: excellent urease inhibition characteristics | 92.6% | 38.9% |
| Sc1ccccn1 [MP, 2-Mercaptopyridine] |  |  | excellent urease inhibitors | 80.2% | 37.8% |
| Sc1ncccn1 [MPM, 2-Mercaptopyrimidine] |  |  | excellent urease inhibitors | 72.8% | 44.6% |
| [O-][n+]1ccccc1S [MPNO, 2-Mercaptopyridine-N-Oxide] |  |  | excellent urease inhibition characteristics | 76.8% | 32.2% |
| Oc1cccnc1S [MPOL, 2-Mercapto-3-pyridinol] |  |  | significantly lower inhibition | 40.1% | 0% |
| [O-][n+]1ccccc1 [PNO, Pyridine-N-Oxide] |  |  | significantly lower inhibition | 11.3% | 0% |
| NP(N)(=O)Oc1ccccc1 [PPDA, Phenyl phosphorodiamidate] | 95.6% | 59.6% |  | 92.1% | 54.2% |
